In paper PMC11972452 (ACS infectious diseases, 2024) one finds KI (inactivation) data, which are given here for one compound.

In the assay the target is OXA-58 (Acinetobacter baumannii, UniProt Q2TR58). Kind of assay: time-resolved X-ray crystallography of the acyl-enzyme complex. The note with it: read-out: Ki. It is filed as biochemical.
Chain of OXA-58 (Q2TR58 19-280): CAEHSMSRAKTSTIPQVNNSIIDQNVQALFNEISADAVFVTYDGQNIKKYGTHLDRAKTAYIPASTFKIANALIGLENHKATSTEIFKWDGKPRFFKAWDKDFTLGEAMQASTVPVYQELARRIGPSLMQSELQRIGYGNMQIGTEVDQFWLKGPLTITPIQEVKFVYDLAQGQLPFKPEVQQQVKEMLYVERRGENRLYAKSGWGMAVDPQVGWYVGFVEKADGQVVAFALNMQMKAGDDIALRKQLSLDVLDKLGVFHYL

In the case of `CC(O)[C@H]1C(=O)N2C(C(=O)O)=C(S[C@H]3CNC(C(=O)N(C)C)C3)C[C@]12C` (stereo partly shown) [NA-1-157, NA-1–157], the KI (inactivation) worked out at 1.9 ± 0.3 µM.
